Measurements published in patent publication US10670605B2, “Cysteine reactive probes and uses thereof” (The Scripps Research Institute, priority 2015, dated 2020).
Values belong to the compound of their own block, whether it stands above or below them.

Tests used:
Test in all cases: Competitive isoTOP-ABPP in situ (fragment-treated cells)
Type in all cases: cell-based
[1] = target: T1, cysteines in MDA-MB-231 and Ramos cells (Homo sapiens, UniProt O95336); conditions: for isoTOP-ABPP reactivity O95336_C32 PGLS: 200 μM, insitu, 231
T1 sequence (O95336 1-258): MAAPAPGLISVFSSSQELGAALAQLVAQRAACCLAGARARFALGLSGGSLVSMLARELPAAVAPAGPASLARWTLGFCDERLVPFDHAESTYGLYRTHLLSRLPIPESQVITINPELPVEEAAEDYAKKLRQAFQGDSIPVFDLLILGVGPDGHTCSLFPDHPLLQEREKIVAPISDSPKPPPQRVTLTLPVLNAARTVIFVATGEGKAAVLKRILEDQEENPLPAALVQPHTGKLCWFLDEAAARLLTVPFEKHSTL

[2] = target: cysteines in MDA-MB-231 and Ramos cells (Homo sapiens, UniProt P04406)
[3] = target: T2, cysteines in MDA-MB-231 and Ramos cells (Homo sapiens, UniProt P42166)
T2 sequence (P42166 1-694): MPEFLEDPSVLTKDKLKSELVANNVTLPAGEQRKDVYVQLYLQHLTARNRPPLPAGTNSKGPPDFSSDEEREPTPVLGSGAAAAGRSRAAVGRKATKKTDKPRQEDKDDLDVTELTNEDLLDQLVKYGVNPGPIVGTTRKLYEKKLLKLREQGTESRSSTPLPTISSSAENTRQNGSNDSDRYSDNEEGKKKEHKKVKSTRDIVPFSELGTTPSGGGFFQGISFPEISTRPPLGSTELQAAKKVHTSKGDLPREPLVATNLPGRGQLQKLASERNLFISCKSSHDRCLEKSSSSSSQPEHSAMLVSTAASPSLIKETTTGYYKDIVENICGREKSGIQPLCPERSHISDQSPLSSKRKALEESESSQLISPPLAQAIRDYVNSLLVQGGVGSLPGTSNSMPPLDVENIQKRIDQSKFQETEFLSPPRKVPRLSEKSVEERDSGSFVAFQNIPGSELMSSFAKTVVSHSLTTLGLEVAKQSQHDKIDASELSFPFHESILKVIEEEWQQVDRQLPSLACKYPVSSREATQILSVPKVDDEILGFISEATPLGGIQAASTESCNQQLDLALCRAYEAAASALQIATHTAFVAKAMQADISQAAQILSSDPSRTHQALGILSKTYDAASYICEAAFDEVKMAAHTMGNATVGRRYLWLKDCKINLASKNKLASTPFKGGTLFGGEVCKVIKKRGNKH

[4] = target: cysteines in MDA-MB-231 and Ramos cells (Homo sapiens, UniProt Q16831)
[5] = target: T3, cysteines in MDA-MB-231 and Ramos cells (Homo sapiens, UniProt Q96AB3)
T3 sequence (Q96AB3 1-205): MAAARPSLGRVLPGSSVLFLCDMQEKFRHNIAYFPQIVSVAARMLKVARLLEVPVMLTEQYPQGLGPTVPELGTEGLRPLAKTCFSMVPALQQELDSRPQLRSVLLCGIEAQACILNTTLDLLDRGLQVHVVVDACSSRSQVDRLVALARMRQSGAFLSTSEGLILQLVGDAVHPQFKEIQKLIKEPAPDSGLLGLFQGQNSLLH

[6] = target: T4, cysteines in MDA-MB-231 and Ramos cells (Homo sapiens, UniProt Q9BVC5)
T4 sequence (Q9BVC5 1-232): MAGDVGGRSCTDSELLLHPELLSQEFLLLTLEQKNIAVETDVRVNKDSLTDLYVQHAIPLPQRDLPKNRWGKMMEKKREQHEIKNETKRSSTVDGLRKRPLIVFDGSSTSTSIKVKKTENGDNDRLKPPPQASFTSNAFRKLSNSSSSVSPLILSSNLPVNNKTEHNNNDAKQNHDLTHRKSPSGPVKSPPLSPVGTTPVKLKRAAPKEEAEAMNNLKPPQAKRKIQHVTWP

[7] = target: T5, cysteines in MDA-MB-231 and Ramos cells (Homo sapiens, UniProt Q9NVC6)
T5 sequence (Q9NVC6 1-651): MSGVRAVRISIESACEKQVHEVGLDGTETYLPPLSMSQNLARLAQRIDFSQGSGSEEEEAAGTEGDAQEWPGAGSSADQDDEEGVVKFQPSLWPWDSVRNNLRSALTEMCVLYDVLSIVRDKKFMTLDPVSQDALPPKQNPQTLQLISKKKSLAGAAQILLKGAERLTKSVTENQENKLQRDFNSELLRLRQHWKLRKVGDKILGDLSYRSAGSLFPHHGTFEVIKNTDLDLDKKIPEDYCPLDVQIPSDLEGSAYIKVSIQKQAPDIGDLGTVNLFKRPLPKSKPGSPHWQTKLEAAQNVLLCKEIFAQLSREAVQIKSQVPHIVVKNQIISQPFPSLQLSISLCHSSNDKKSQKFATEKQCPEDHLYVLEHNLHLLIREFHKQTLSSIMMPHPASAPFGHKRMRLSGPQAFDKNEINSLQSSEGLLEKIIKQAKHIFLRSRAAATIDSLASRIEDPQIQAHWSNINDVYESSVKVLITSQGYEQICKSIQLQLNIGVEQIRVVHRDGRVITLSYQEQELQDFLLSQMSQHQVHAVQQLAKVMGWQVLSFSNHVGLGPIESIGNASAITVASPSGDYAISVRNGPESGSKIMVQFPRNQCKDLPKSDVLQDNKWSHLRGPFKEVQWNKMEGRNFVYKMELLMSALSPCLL

[8] = target: cysteines in MDA-MB-231 and Ramos cells (Homo sapiens, UniProt Q9Y696)
[9] = target: T6, cysteines in MDA-MB-231 and Ramos cells (Homo sapiens, UniProt Q99439)
T6 sequence (Q99439 1-309): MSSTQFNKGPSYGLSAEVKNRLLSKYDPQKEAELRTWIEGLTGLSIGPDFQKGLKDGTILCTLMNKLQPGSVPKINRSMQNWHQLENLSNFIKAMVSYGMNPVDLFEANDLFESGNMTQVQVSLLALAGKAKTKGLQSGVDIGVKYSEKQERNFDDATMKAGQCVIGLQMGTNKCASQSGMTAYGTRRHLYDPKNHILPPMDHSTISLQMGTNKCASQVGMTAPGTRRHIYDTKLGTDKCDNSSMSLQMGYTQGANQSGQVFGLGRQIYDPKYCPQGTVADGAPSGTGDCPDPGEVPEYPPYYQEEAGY

Chain of cysteines in MDA-MB-231 and Ramos cells (Homo sapiens, UniProt Q9Y696) (Q9Y696 whole entry): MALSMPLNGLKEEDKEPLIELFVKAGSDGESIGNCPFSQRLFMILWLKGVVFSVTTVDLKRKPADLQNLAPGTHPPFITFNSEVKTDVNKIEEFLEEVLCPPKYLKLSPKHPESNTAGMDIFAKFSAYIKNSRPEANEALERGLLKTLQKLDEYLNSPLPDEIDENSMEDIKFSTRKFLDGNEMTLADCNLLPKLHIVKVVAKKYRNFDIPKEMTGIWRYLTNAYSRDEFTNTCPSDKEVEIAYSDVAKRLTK
Chain of cysteines in MDA-MB-231 and Ramos cells (Homo sapiens, UniProt Q16831) (Q16831 whole entry): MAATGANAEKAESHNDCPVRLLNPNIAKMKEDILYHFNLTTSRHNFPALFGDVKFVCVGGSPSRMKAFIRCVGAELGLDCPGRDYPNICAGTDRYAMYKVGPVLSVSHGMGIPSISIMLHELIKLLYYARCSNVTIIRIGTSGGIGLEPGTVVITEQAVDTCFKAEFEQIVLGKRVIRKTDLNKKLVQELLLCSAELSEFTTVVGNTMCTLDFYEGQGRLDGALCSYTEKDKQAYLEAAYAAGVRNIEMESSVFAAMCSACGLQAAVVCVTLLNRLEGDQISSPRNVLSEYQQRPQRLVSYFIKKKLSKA
Chain of cysteines in MDA-MB-231 and Ramos cells (Homo sapiens, UniProt P04406) (P04406 whole entry): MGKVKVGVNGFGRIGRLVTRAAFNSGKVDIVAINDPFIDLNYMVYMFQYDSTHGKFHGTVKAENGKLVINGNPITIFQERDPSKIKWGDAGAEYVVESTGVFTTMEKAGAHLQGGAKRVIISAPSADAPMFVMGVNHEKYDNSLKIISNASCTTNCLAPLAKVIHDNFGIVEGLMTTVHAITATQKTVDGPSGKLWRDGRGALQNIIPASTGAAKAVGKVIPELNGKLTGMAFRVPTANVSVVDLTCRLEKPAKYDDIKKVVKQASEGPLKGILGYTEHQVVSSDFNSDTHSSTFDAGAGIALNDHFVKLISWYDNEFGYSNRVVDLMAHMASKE

SMILES: COc1ccc2c(c1)CCCN2C(=O)CCl [compound 2]
- isoTOP-ABPP reactivity O95336_C32 PGLS [1]: 14.9
- isoTOP-ABPP reactivity P04406_C152 GAPDH ([2]; 200 μM, insitu, 231): 20.0
- isoTOP-ABPP reactivity P42166_C341 TMPO ([3]; 200 μM, insitu, 231): 10.4
- isoTOP-ABPP reactivity P42166_C561 TMPO ([3]; 200 μM, insitu, 231): 8.3
- isoTOP-ABPP reactivity P42166_C629 TMPO ([3]; 200 μM, insitu, 231): 4.4
- isoTOP-ABPP reactivity Q16831_C162 UPP1 ([4]; 200 μM, insitu, 231): 1.2
- isoTOP-ABPP reactivity Q96AB3_C114 ISOC2 ([5]; 200 μM, insitu, 231): 1.6
- isoTOP-ABPP reactivity Q9BVC5_C10 C2orf49 ([6]; 200 μM, insitu, 231): 2.7
- isoTOP-ABPP reactivity Q9NVC6_C649 MED17 ([7]; 200 μM, insitu, 231): 7.7
- isoTOP-ABPP reactivity Q9Y696_C35 CLIC4 ([8]; 200 μM, insitu, 231): 1.7

SMILES: COc1ccc(C2CC(c3cccs3)=NN2C(=O)CCl)cc1 (centres unmarked) [compound 4]
- isoTOP-ABPP reactivity P04406_C152 GAPDH ([2]; 100 μM in situ 231): 1.6
- isoTOP-ABPP reactivity P42166_C561 TMPO ([3]; 100 μM in situ 231): 20.0
- isoTOP-ABPP reactivity Q16831_C162 UPP1 ([4]; 100 μM in situ 231): 1.0
- isoTOP-ABPP reactivity Q96AB3_C114 ISOC2 ([5]; 100 μM in situ 231): 0.8
- isoTOP-ABPP reactivity Q99439_C164 CNN2 ([9]; 100 μM in situ 231): 1.5
- isoTOP-ABPP reactivity Q9BVC5_C10 C2orf49 ([6]; 100 μM in situ 231): 3.3
- isoTOP-ABPP reactivity Q9NVC6_C649 MED17 ([7]; 100 μM in situ 231): 1.7
- isoTOP-ABPP reactivity Q9Y696_C35 CLIC4 ([8]; 100 μM in situ 231): 20.0

SMILES: COc1cc2c(cc1OC)CN(C(=O)CCl)CC2 [compound 8]
- isoTOP-ABPP reactivity O95336_C32 PGLS [1]: 20.0
- isoTOP-ABPP reactivity P04406_C152 GAPDH ([2]; 200 μM, insitu, 231): 1.1
- isoTOP-ABPP reactivity P42166_C341 TMPO ([3]; 200 μM, insitu, 231): 4.4
- isoTOP-ABPP reactivity P42166_C561 TMPO ([3]; 200 μM, insitu, 231): 4.6
- isoTOP-ABPP reactivity P42166_C629 TMPO ([3]; 200 μM, insitu, 231): 1.7
- isoTOP-ABPP reactivity P42166_C684 TMPO ([3]; 200 μM, insitu, 231): 4.6
- isoTOP-ABPP reactivity Q16831_C162 UPP1 ([4]; 200 μM, insitu, 231): 20.0
- isoTOP-ABPP reactivity Q96AB3_C114 ISOC2 ([5]; 200 μM, insitu, 231): 4.7
- isoTOP-ABPP reactivity Q99439_C164 CNN2 ([9]; 200 μM, insitu, 231): 1.1
- isoTOP-ABPP reactivity Q9BVC5_C10 C2orf49 ([6]; 200 μM, insitu, 231): 4.5
- isoTOP-ABPP reactivity Q9NVC6_C649 MED17 ([7]; 200 μM, insitu, 231): 3.2
- isoTOP-ABPP reactivity Q9Y696_C35 CLIC4 ([8]; 200 μM, insitu, 231): 4.7

SMILES: O=C(CCl)N1CCC(Cc2ccccc2)CC1 [compound 9]
- isoTOP-ABPP reactivity O95336_C32 PGLS [1]: 6.7
- isoTOP-ABPP reactivity P04406_C152 GAPDH ([2]; 200 μM, insitu, 231): 1.7
- isoTOP-ABPP reactivity P42166_C561 TMPO ([3]; 200 μM, insitu, 231): 3.7
- isoTOP-ABPP reactivity Q16831_C162 UPP1 ([4]; 200 μM, insitu, 231): 7.7
- isoTOP-ABPP reactivity Q99439_C164 CNN2 ([9]; 200 μM, insitu, 231): 4.7
- isoTOP-ABPP reactivity Q9NVC6_C649 MED17 ([7]; 200 μM, insitu, 231): 2.2
- isoTOP-ABPP reactivity Q9Y696_C35 CLIC4 ([8]; 200 μM, insitu, 231): 2.6

The next lines start with the values.

- isoTOP-ABPP ratio P04406_C152 ([2]; 200 μM, insitu, 231): 1.0
- isoTOP-ABPP ratio P04406_C152 ([2]; 200 μM, insitu, ramos): 0.9
- isoTOP-ABPP ratio P42166_C561 ([3]; 200 μM, insitu, 231): 17.8
- isoTOP-ABPP ratio, cysteine P42166_C518 ([3]; 200 μM, insitu, 231): 4.2
- isoTOP-ABPP ratio, cysteine P42166_C629 ([3]; 200 μM, insitu, 231): 2.5
- isoTOP-ABPP ratio, cysteine P42166_C684 ([3]; 200 μM, insitu, 231): 5.2
- isoTOP-ABPP ratio Q16831_C162 ([4]; 200 μM, insitu, 231): 7.3
- isoTOP-ABPP ratio Q96AB3_C114 ([5]; 200 μM, insitu, 231): 20.0
- isoTOP-ABPP ratio Q99439_C164 ([9]; 200 μM, insitu, 231): 1.2
- isoTOP-ABPP ratio Q99439_C164 ([9]; 200 μM, insitu, ramos): 1.3
- isoTOP-ABPP ratio Q9BVC5_C10 ([6]; 200 μM, insitu, 231): 3.1
- isoTOP-ABPP ratio Q9NVC6_C649 ([7]; 200 μM, insitu, 231): 2.3
- isoTOP-ABPP ratio Q9NVC6_C649 ([7]; 200 μM, insitu, ramos): 2.1
- isoTOP-ABPP ratio Q9Y696_C35 ([8]; 200 μM, insitu, 231): 2.7
- isoTOP-ABPP ratio Q9Y696_C35 ([8]; 200 μM, insitu, ramos): 1.6
SMILES: O=C(CCl)N1CCN(S(=O)(=O)c2ccccc2F)CC1 [compound 10]

- isoTOP-ABPP ratio O95336_C32 ([1]; 100 μM in situ 231): 0.9
- isoTOP-ABPP ratio P04406_C152 ([2]; 100 μM in situ 231): 0.8
- isoTOP-ABPP ratio P42166_C341 ([3]; 100 μM in situ 231): 0.8
- isoTOP-ABPP ratio P42166_C561 ([3]; 100 μM in situ 231): 0.6
- isoTOP-ABPP ratio, cysteine P42166_C518 ([3]; 100 μM in situ 231): 0.8
- isoTOP-ABPP ratio, cysteine P42166_C629 ([3]; 100 μM in situ 231): 0.6
- isoTOP-ABPP ratio, cysteine P42166_C684 ([3]; 100 μM in situ 231): 0.7
- isoTOP-ABPP ratio Q16831_C162 ([4]; 100 μM in situ 231): 0.8
- isoTOP-ABPP ratio Q96AB3_C114 ([5]; 100 μM in situ 231): 0.9
- isoTOP-ABPP ratio Q99439_C164 ([9]; 100 μM in situ 231): 0.6
- isoTOP-ABPP ratio Q9BVC5_C10 ([6]; 100 μM in situ 231): 1.1
- isoTOP-ABPP ratio Q9NVC6_C649 ([7]; 100 μM in situ 231): 0.8
- isoTOP-ABPP ratio Q9Y696_C35 ([8]; 100 μM in situ 231): 1.9
SMILES: Cn1cc(S(=O)(=O)N2CCOCC2)cc1C(=O)NC(=O)CCl [compound 11]
